Results from patent publication US20220033389A1, “INSECTICIDAL COMPOUNDS” (SYNGENTA CROP PROTECTION AG, priority 2018, published 2022).

Columns and labels:
Assay type in all cases: in vivo
[1] = test system: Thrips tabaci (Onion Thrips); assay: Thrips tabaci (onion thrips) feeding/contact activity; settings: 144 h, mixed ages, 6 days after infestation
Protocol: Thrips tabaci (Onion Thrips) Feeding/Contact Activity
(§1) Sunflower leaf discs were placed on agar in 24-well microtiter plates and sprayed with aqueous test solutions prepared from 10′000 ppm DMSO stock solutions. After drying the leaf discs were infested with a thrips population of mixed ages. The samples were assessed for mortality 6 days after infestation.

[2] = test system: Diabrotica balteata (Corn Root Worm); assay: Diabrotica balteata (corn root worm) on maize sprouts, spray; settings: 96 h, L2 larvae, 4 days after infestation, read-out: effect in at least one of the two categories (mortality or growth inhibition)
Protocol: Diabrotica balteata (Corn Root Worm)
Maize sprouts placed onto an agar layer in 24-well microtiter plates were treated with aqueous test solutions prepared from 10′000 ppm DMSO stock solutions by spraying. After drying, the plates were infested with L2 larvae (6 to 10 per well). The samples were assessed for mortality and growth inhibition in comparison to untreated samples 4 days after infestation.

[3] = test system: Spodoptera littoralis (Egyptian Cotton Leaf Worm); assay: Spodoptera littoralis (Egyptian cotton leaf worm) on cotton leaf discs; settings: foliar, 72 h, L1 larvae, 3 days after infestation
Protocol: Spodoptera littoralis (Egyptian Cotton Leaf Worm)
Cotton leaf discs were placed onto agar in 24-well microtiter plates and sprayed with aqueous test solutions prepared from 10′000 ppm DMSO stock solutions. After drying the leaf discs were infested with five L1 larvae. The samples were assessed for mortality, anti-feeding effect, and growth inhibition in comparison to untreated samples 3 days after infestation. Control of Spodoptera littoralis by a test sample is given when at least one of the categories mortality, anti-feedant effect, and growth inhibition is higher than the untreated sample.

[4] = test system: Plutella xylostella (Diamond Back Moth); assay: Plutella xylostella (diamond back moth), L2 larvae on artificial diet; settings: 120 h, 5 days after infestation, read-out: effect in at least one of the two categories (mortality or growth inhibition)
Protocol: (§2) Plutella xylostella (Diamond Back Moth)
(§3) 24-well microtiter plates with artificial diet were treated with aqueous test solutions prepared from 10′000 ppm DMSO stock solutions by pipetting. After drying, the plates were infested with L2 larvae (10 to 15 per well). The samples were assessed for mortality and growth inhibition in comparison to untreated samples 5 days after infestation.

[5] = test system: Myzus persicae (Green Peach Aphid); assay: Myzus persicae (green peach aphid) feeding/contact activity; settings: 144 h, mixed ages, 6 days after infestation
Protocol: Myzus persicae (Green Peach Aphid): Feeding/Contact Activity
Sunflower leaf discs were placed onto agar in a 24-well microtiter plate and sprayed with aqueous test solutions prepared from 10′000 ppm DMSO stock solutions. After drying, the leaf discs were infested with an aphid population of mixed ages. The samples were assessed for mortality 6 days after infestation.

[6] = test system: Euschistus heros (Neotropical Brown Stink Bug); assay: Euschistus heros (neotropical brown stink bug) on soybean leaves, spray; settings: 120 h, N2 nymphs, 5 days after infestation, read-out: effect in at least one of the two categories (mortality or growth inhibition)
Protocol: Euschistus heros(Neotropical Brown Stink Bug) Soybean leaves on agar in 24-well microtiter plates were sprayed with aqueous test solutions prepared from 10′000 ppm DMSO stock solutions. After drying the leaves were infested with N2 nymphs. The samples were assessed for mortality and growth inhibition in comparison to untreated samples 5 days after infestation.

[7] = test system: Tetranychus urticae (Two-Spotted Spider Mite); assay: Tetranychus urticae (two-spotted spider mite) feeding/contact activity; settings: 192 h, mixed population (mobile stages), 8 days after infestation
Protocol: Tetranychus urticae (Two-Spotted Spider Mite): Feeding/Contact Activity
as §1, with “Bean” for “Sunflower”, “discs” for “discs were placed”, “were” for “and”, “mite” for “thrips”, “on mixed population (mobile stages) 8” for “6”

[8] = test system: Plutella xylostella (Diamond Back Moth); assay: Plutella xylostella (diamond back moth), eggs on artificial diet; settings: 192 h, 8 days after infestation, read-out: effect in at least one of the two categories (mortality or growth inhibition)
Protocol: as §2
as §3, with “drying, Plutella eggs were pipetted through a plastic stencil onto a gel blotting paper and” for “drying,”, “plate was closed” for “plates were infested”, “it.” for “L2 larvae (10 to 15 per well).”, “8” for “5”

CCOC1=NOC(N(C(=O)c2ccc(C3=NO[C@@](c4cc(Cl)c(F)c(Cl)c4)(C(F)(F)F)C3)cc2C)C(=O)C2CC2)C1 (stereo partly drawn) [Compound A1, N-(cyclopropanecarbonyl)-4-[(5S)-5-(3,5-dichloro-4-fluoro-phenyl)-5-(trifluoromethyl)-4H-isoxazol-3-yl]-N-(3-ethoxy-4,5-dihydroisoxazol-5-yl)-2-methyl-benzamide]
≥ 80%: mortality at 200 ppm [1] | percent effect (mortality or growth inhibition) at 200 ppm [2] | percent control (mortality, anti-feedant effect or growth inhibition) at 200 ppm [3] | effect (mortality or growth inhibition) at 200 ppm [4] | mortality at 200 ppm [5] | percent effect (mortality or growth inhibition) at 200 ppm [6] | mortality at 200 ppm [7]

CCOC1=NOC(N(COC(=O)C(C)C)C(=O)c2ccc(C3=NO[C@@](c4cc(Cl)c(F)c(Cl)c4)(C(F)(F)F)C3)cc2C)C1 (stereo partly drawn) [Compound A2, [[4-[(5S)-5-(3,5-dichloro-4-fluoro-phenyl)-5-(trifluoromethyl)-4H-isoxazol-3-yl]-2-methyl-benzoyl]-(3-ethoxy-4,5-dihydroisoxazol-5-yl)amino]methyl 2-methylpropanoate]
≥ 80%: mortality at 200 ppm [1] | percent effect (mortality or growth inhibition) at 200 ppm [2] | percent control (mortality, anti-feedant effect or growth inhibition) at 200 ppm [3] | effect (mortality or growth inhibition) at 200 ppm [4] | mortality at 200 ppm [5] | percent effect (mortality or growth inhibition) at 200 ppm [6] | mortality at 200 ppm [7]

CCOC1=NOC(N(COC(=O)C(C)(C)C)C(=O)c2ccc(C3=NO[C@@](c4cc(Cl)c(F)c(Cl)c4)(C(F)(F)F)C3)cc2C)C1 (stereo partly drawn) [Compound A3, [[4-[(5S)-5-(3,5-dichloro-4-fluoro-phenyl)-5-(trifluoromethyl)-4H-isoxazol-3-yl]-2-methyl-benzoyl]-(3-ethoxy-4,5-dihydroisoxazol-5-yl)amino]methyl 2,2-dimethylpropanoate]
≥ 80%: mortality at 200 ppm [1] | percent effect (mortality or growth inhibition) at 200 ppm [2] | percent control (mortality, anti-feedant effect or growth inhibition) at 200 ppm [3] | effect (mortality or growth inhibition) at 200 ppm [4] | mortality at 200 ppm [5] | percent effect (mortality or growth inhibition) at 200 ppm [6] | mortality at 200 ppm [7]

CCOC1=NOC(N(CN(C)C(=O)OC)C(=O)c2ccc(C3=NO[C@@](c4cc(Cl)c(F)c(Cl)c4)(C(F)(F)F)C3)cc2C)C1 (stereo partly drawn) [Compound A4, methyl N-[[[4-[(5S)-5-(3,5-dichloro-4-fluoro-phenyl)-5-(trifluoromethyl)-4H-isoxazol-3-yl]-2-methyl-benzoyl]-(3-ethoxy-4,5-dihydroisoxazol-5-yl)amino]methyl]-N-methyl-carbamate]
≥ 80%: percent effect (mortality or growth inhibition) at 200 ppm [8] | mortality at 200 ppm [1] | percent effect (mortality or growth inhibition) at 200 ppm [2] | percent control (mortality, anti-feedant effect or growth inhibition) at 200 ppm [3] | mortality at 200 ppm [5] | percent effect (mortality or growth inhibition) at 200 ppm [6] | mortality at 200 ppm [7]

CCOC1=NOC(N(COC(=O)N(C)C)C(=O)c2ccc(C3=NO[C@@](c4cc(Cl)c(F)c(Cl)c4)(C(F)(F)F)C3)cc2C)C1 (stereo partly drawn) [Compound A5, [[4-[(5S)-5-(3,5-dichloro-4-fluoro-phenyl)-5-(trifluoromethyl)-4H-isoxazol-3-yl]-2-methyl-benzoyl]-(3-ethoxy-4,5-dihydroisoxazol-5-yl)amino]methyl N,N-dimethylcarbamate]
≥ 80%: percent effect (mortality or growth inhibition) at 200 ppm [8] | mortality at 200 ppm [1] | percent effect (mortality or growth inhibition) at 200 ppm [2] | percent control (mortality, anti-feedant effect or growth inhibition) at 200 ppm [3] | percent effect (mortality or growth inhibition) at 200 ppm [6] | mortality at 200 ppm [7]

CCOC1=NOC(N(COC(=O)OC)C(=O)c2ccc(C3=NO[C@@](c4cc(Cl)c(F)c(Cl)c4)(C(F)(F)F)C3)cc2C)C1 (stereo partly drawn) [Compound A6, [[4-[(5S)-5-(3,5-dichloro-4-fluoro-phenyl)-5-(trifluoromethyl)-4H-isoxazol-3-yl]-2-methyl-benzoyl]-(3-ethoxy-4,5-dihydroisoxazol-5-yl)amino]methyl methyl carbonate]
≥ 80%: percent effect (mortality or growth inhibition) at 200 ppm [8] | percent control (mortality, anti-feedant effect or growth inhibition) at 200 ppm [3] | percent effect (mortality or growth inhibition) at 200 ppm [6]

CCOC1=NOC(N(COC(=O)C2CC2)C(=O)c2ccc(C3=NO[C@@](c4cc(Cl)c(F)c(Cl)c4)(C(F)(F)F)C3)cc2C)C1 (stereo partly drawn) [Compound A7, [[4-[(5S)-5-(3,5-dichloro-4-fluoro-phenyl)-5-(trifluoromethyl)-4H-isoxazol-3-yl]-2-methyl-benzoyl]-(3-ethoxy-4,5-dihydroisoxazol-5-yl)amino]methyl cyclopropanecarboxylate]
≥ 80%: percent effect (mortality or growth inhibition) at 200 ppm [8] | percent control (mortality, anti-feedant effect or growth inhibition) at 200 ppm [3] | percent effect (mortality or growth inhibition) at 200 ppm [6]
